Data published in patent US10669272B2, “Substituted naphthyridinone compounds useful as T cell activators” (BRISTOL-MYERS SQUIBB COMPANY, priority 2018, dated 2020).
Like-named read-outs stand apart in the source and are kept apart here.

Tests used:
[1] = target: T1, human DGKα (Homo sapiens, UniProt P23743); assay: DGKα LIPGLO assay (extruded liposome substrate), in vitro DGK inhibition; format: biochemical; settings: read-out: DGKa LIPGLO IC50
T1 construct: TVMV protease cleavage site (C); Hexa-His (C); made in house; host or cells: Sf9 insect cells (baculovirus, Bac-to-Bac)

[2] = target: T2, human DGKζ (Homo sapiens, UniProt Q13574); assay: DGKζ LIPGLO assay (extruded liposome substrate), in vitro DGK inhibition; format: biochemical; settings: read-out: DGKz LIPGLO IC50
T2 construct: TVMV protease cleavage site (C); Hexa-His (C); made in house; host or cells: Sf9 insect cells (baculovirus, Bac-to-Bac)

[3] = system: naïve human CD8 T cells; assay: Human CD8 T cells IFN-γ assay; format: cell-based; settings: read-out: HuCD8 INFG Normalized EC50;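 also: Naïve human CD8 T cells stimulated with plate-bound anti-CD3 and soluble anti-CD28, IFN-γ in supernatant quantified by AlphaLISA and converted to pg/mL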
[4] = system: Human venous whole blood; assay: Human whole blood IFN-γ assay; format: cell-based; settings: human whole blood, read-out: INFg Whole Blood Normalized Agonist EC50;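 also: blood from healthy donors exposed to compound for 1 h before stimulation with anti-CD3 and anti-CD28 at 1 µg/mL each, IFN-γ quantified in supernatant by AlphaLISA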
Experimental: Human Whole Blood IFN-γ Assay
Human venous whole blood (22.5 μL per well), obtained from healthy donors, was pre-treated with compounds for one hour at 37° C. in a humidified 95% air/5% CO2 incubator. The blood was stimulated with 2.5 μL anti-human CD3 and anti-CD28 mAb at a final concentration of 1 μg/mL each for 24 hours at 37° C. IFN-γ in the supernatants was measured using AlphLISA kit (Cat # AL217).

[5] = Homo sapiens, T-cell, 20 h, normalized to 3 μM reference compound with anti-CD3 plus anti-CD28 as 100% activation
[6] = normalized to 3 μM reference compound with anti-CD3 plus anti-CD28 as 100% activation
[7] = Homo sapiens, 24 h, normalized to 3 μM reference compound with anti-CD3 plus anti-CD28 as 100% activation
[8] = Homo sapiens, T-cell, 20 h, naïve human CD8 T cells, anti-CD3 plus anti-CD28, 3 μM reference compound = 100% activation
[9] = Homo sapiens, 24 h, anti-CD3 plus anti-CD28, 24 hours, 3 μM reference compound = 100% activation
[10] = anti-CD3 plus anti-CD28, 24 hours, 3 μM reference compound = 100% activation

T1 sequence (P23743 with tags, fused parts or gaps): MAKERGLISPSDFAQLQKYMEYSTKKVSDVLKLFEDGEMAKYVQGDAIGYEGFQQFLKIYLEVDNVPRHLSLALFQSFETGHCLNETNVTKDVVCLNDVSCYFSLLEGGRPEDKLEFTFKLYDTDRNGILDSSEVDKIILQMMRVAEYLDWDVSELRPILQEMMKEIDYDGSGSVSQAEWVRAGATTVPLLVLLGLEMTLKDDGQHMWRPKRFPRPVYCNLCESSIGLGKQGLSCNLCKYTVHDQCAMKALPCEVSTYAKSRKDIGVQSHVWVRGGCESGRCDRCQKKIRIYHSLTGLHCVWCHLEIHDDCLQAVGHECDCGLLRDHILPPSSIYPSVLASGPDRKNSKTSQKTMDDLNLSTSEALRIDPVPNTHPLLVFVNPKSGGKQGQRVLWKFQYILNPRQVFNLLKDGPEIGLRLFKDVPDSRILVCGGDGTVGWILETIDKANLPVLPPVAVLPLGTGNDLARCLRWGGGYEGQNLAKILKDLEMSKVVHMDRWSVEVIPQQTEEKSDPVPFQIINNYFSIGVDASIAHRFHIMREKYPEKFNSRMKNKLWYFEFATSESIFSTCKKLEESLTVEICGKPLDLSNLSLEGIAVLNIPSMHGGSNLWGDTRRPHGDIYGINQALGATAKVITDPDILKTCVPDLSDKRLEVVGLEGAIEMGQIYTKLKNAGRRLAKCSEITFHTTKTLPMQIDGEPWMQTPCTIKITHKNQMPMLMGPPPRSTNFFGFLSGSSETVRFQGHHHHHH
T2 sequence (Q13574 with tags, fused parts or gaps isoform Q13574-4): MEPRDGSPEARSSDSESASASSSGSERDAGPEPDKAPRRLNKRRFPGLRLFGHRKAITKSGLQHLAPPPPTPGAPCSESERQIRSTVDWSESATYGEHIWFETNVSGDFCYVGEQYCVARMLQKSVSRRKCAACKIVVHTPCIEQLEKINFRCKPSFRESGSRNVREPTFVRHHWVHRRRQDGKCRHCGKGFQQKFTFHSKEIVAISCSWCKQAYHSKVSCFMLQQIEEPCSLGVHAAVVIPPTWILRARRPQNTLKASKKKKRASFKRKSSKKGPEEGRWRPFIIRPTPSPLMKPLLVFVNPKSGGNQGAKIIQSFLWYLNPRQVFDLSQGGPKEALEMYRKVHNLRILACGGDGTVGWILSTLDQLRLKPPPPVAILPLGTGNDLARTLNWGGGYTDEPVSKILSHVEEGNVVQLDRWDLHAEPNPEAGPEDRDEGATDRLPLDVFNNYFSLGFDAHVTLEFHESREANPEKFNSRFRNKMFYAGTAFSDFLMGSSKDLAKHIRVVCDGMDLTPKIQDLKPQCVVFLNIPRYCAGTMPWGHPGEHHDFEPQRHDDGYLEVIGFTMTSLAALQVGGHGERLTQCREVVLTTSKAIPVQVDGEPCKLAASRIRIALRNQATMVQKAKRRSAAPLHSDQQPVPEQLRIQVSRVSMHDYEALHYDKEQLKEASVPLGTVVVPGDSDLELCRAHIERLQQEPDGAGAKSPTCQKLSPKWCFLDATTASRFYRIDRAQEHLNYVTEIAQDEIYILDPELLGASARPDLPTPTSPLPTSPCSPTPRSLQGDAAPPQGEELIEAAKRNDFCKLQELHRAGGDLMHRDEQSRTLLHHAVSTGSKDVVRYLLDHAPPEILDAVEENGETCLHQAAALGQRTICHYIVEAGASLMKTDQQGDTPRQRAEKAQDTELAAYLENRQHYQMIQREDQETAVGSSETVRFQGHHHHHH

| Compound | IC50 ([1]; liposome (LIPGLO) assay) | IC50 ([2]; liposome (LIPGLO) assay) | EC50 [3, 5] | EC50 [3, 6] | EC50 [4, 7] | further results |
| --- | --- | --- | --- | --- | --- | --- |
| CC[C@H]1CN(C(C)c2ccc(F)cc2)[C@H](C)CN1c1cc(=O)n(C)c2ccc(C#N)nc12 (single isomer, unassigned) [Example 1135] | 18 nM | 360 nM | 22 nM | – | – | EC50 [4, 6]: 320 nM |
| CC[C@@H]1CN(c2cc(=O)n(C)c3ccc(C#N)nc23)[C@@H](C)CN1C(c1ccc(F)cc1)c1ccc(C#N)cc1 (single isomer, unassigned) [Example 1103] | 250 nM | 270 nM | – | 21 nM | – | EC50 [4, 6]: 260 nM |
| Cc1ccc(C(c2cccc(Cl)c2)N2C[C@H](C)N(c3cc(=O)n(C)c4ccc(C#N)nc34)C[C@H]2C)nc1 (single isomer, unassigned) [Example 369] | 2800 nM | 1400 nM | – | 150 nM | 480 nM | – |
| C[C@@H]1CN(c2cc(=O)n(C)c3ccc(C#N)nc23)[C@@H](C)CN1C(c1ccc(Cl)cc1)c1ccc(F)cn1 (single isomer, unassigned) [Example 191] | 200 nM | 590 nM | 31 nM | – | 430 nM | – |
| C[C@@H]1CN(c2cc(=O)n(C)c3ccc(C#N)nc23)[C@@H](C)CN1C(c1ccccc1)c1ccccc1Cl (stereo partly drawn) [Example 259, 8-[(2S,5R)-4-[(2-chlorophenyl)(phenyl)methyl]-2,5-dimethylpiperazin-1-yl]-5-methyl-6-oxo-5,6-dihydro-1,5-naphthyridine-2-carbonitrile] | 3100 nM | 840 nM | 550 nM | – | 2100 nM | – |
| [2H]C(C)(c1ccc(F)cc1)N1C[C@H](C)N(c2c(F)c(=O)n(C)c3ccc(C#N)nc23)C[C@H]1C (single isomer, unassigned) [Example 425] | 58 nM | 1500 nM | 110 nM | – | – | EC50 [4, 6]: 270 nM |
| C[C@@H]1CN(c2cc(=O)n(C)c3ccc(C#N)nc23)[C@@H](C)CN1C(c1ccc(F)c(F)c1)c1ccccn1 (single isomer, unassigned) [Example 376] | 2900 nM | 1100 nM | – | 28 nM | – | EC50 [4, 6]: 380 nM |
| Cc1ccc(C(c2ccc(Cl)cc2)N2C[C@H](C)N(c3cc(=O)n(C)c4ccc(C#N)nc34)C[C@H]2C)cc1 (stereo partly drawn) [Example 299, 8-[(2S,5R)-4-[(4-chlorophenyl)(4-methylphenyl)methyl]-2,5-dimethylpiperazin-1-yl]-5-methyl-6-oxo-5,6-dihydro-1,5-naphthyridine-2-carbonitrile] | 1700 nM | 1100 nM | 17 nM | – | 650 nM | – |
| C[C@H]1CN(C(c2ccc(F)cc2)c2ccc(F)cc2)[C@H](CN2CCOCC2)CN1c1cc(=O)n(C)c2ccc(C#N)nc12 [Example 1167, 8-((2S,5R)-4-(bis(4-fluorophenyl)methyl)-2-methyl-5-(morpholinomethyl)piperazin-1-yl)-5-methyl-6-oxo-5,6-dihydro-1,5-naphthyridine-2-carbonitrile] | 50000 nM | 6600 nM | 47 nM | – | 970 nM | – |
| C[C@@H]1CN(c2cc(=O)n(C)c3ccc(C#N)nc23)[C@@H](C)CN1C(c1ccc(Cl)cc1)c1cccc(F)n1 (single isomer, unassigned) [Example 195] | 1100 nM | 1100 nM | – | 9.9 nM | 1800 nM | – |
| CC[C@@H]1CN(c2cc(=O)n(C)c3ccc(C#N)nc23)[C@@H](C)CN1C(c1ccc(F)cc1)c1ncccc1F (stereo partly shown) [Example 1104] | 250 nM | 900 nM | – | 56 nM | 300 nM | – |
| Cc1ccc(C(c2cccc(F)c2)N2C[C@H](C)N(c3cc(=O)n(C)c4ccc(C#N)nc34)C[C@H]2C)nc1 (single isomer, unassigned) [Example 216] | 180 nM | 210 nM | – | 74 nM | – | EC50 [4, 6]: 130 nM |
| C[C@@H]1CN(c2cc(=O)n(C)c3ccc(C#N)nc23)[C@@H](C)CN1C(c1ccc(F)cc1)c1nc(C(C)(C)C)no1 (stereo partly shown) [Example 737] | – | – | – | – | – | IC50 ([1]; DGKα liposome (LIPGLO) assay): 1100 nM; IC50 ([2]; DGKζ liposome (LIPGLO) assay): 130 nM; EC50 [3, 8]: 0.31 nM; EC50 [4, 9]: 43 nM |
| COc1ccc2c(n1)c(N1C[C@@H](C)N(C(c3ccc(F)cc3)c3ccc(F)cc3)C[C@@H]1C)cc(=O)n2C [Example 241] | 8300 nM | 17000 nM | 1600 nM | – | 16000 nM | – |
| CC(c1c(F)cc(F)cc1F)N1C[C@H](C)N(c2cc(=O)n(C)c3ccc(C#N)nc23)C[C@H]1C (single isomer, unassigned) [Example 432] | 510 nM | 500 nM | 15 nM | – | 67 nM | – |
| COC(=O)C1CN(C(c2ccc(F)cc2)c2ccc(F)cc2)CCN1c1c(C#N)c(=O)n(C)c2ccc(C#N)nc12 (stereo not shown) [Example 114, Methyl 4-(bis(4-fluorophenyl)methyl)-1-(3,6-dicyano-1-methyl-2-oxo-1,2-dihydro-1,5-naphthyridin-4-yl)piperazine-2-carboxylate] | 420 nM | 1600 nM | 57 nM | – | 490 nM | – |
| C[C@@H]1CN(c2c(C#N)c(=O)n(C)c3ccc(C#N)nc23)CCN1C(c1ccc(F)cc1)c1ccc(C(F)(F)F)cn1 (single isomer, unassigned) [Example 896] | – | – | – | – | – | IC50 ([1]; DGKα liposome (LIPGLO) assay): 190 nM; IC50 ([2]; DGKζ liposome (LIPGLO) assay): 600 nM; EC50 [3, 8]: 150 nM; EC50 [4, 10]: 210 nM |
| C[C@@H]1CN(c2c(C#N)c(=O)n(C)c3ccc(C#N)nc23)CCN1C(c1ccc(F)cc1)c1ccc(Cl)cn1 (stereo partly shown) [Example 933] | – | – | – | – | – | IC50 ([1]; DGKα liposome (LIPGLO) assay): 200 nM; IC50 ([2]; DGKζ liposome (LIPGLO) assay): 1000 nM; EC50 ([3]; naïve human CD8 T cells, anti-CD3 plus anti-CD28, 3 μM reference compound = 100% activation): 350 nM; EC50 [4, 10]: 550 nM |
| Cc1cccc(F)c1CN1C[C@H](C)N(c2cc(=O)n(C)c3ccc(C#N)nc23)C[C@H]1C [Example 255, 8-[(2S,5R)-4-[(2-fluoro-6-methylphenyl)methyl]-2,5-dimethylpiperazin-1-yl]-5-methyl-6-oxo-5,6-dihydro-1,5-naphthyridine-2-carbonitrile] | 770 nM | 1700 nM | 180 nM | – | 3200 nM | – |
| CCc1cc(F)ccc1C(c1ccc(F)cc1)N1C[C@H](C)N(c2cc(=O)n(C)c3ccc(OC)nc23)C[C@H]1C (single isomer, unassigned) [Example 233] | 27000 nM | 3600 nM | – | 10000 nM | 20000 nM | – |
| Cc1ccc(C(c2ccc(F)cn2)N2C[C@H](C)N(c3c(C#N)c(=O)n(C)c4ccc(C#N)nc34)C[C@H]2C)cc1 (stereo partly shown) [Example 833] | – | – | – | – | – | IC50 ([1]; DGKα liposome (LIPGLO) assay): 2000 nM; IC50 ([2]; DGKζ liposome (LIPGLO) assay): 2800 nM; EC50 [3, 8]: 320 nM; EC50 [4, 9]: 680 nM |
| C[C@@H]1CN(c2c(C#N)c(=O)n(C)c3ccc(C#N)nc23)CCN1C(c1ccc(F)cc1)c1ccc(F)cn1 (stereo partly shown) [Example 903] | – | – | – | – | – | IC50 ([1]; DGKα liposome (LIPGLO) assay): 630 nM; IC50 ([2]; DGKζ liposome (LIPGLO) assay): 3500 nM; EC50 [3, 8]: 140 nM; EC50 [4, 10]: 730 nM |
| C[C@@H]1CN(c2c(Cl)c(=O)n(C)c3ccc(C#N)nc23)[C@@H](C)CN1C(c1ccccc1)c1ccc(F)cc1 (single isomer, unassigned) [Example 218] | 9500 nM | > 250000 nM | – | 10000 nM | – | EC50 [4, 6]: 20000 nM |
| CCc1ccc(C(c2cccc(F)c2)N2C[C@H](C)N(c3cc(=O)n(C)c4ccc(C#N)nc34)C[C@H]2C)nc1 (single isomer, unassigned) [Example 351] | 640 nM | 1300 nM | – | 31 nM | – | EC50 [4, 6]: 89 nM |
| C[C@@H]1CN(c2cc(=O)n(C)c3ccc(C#N)nc23)[C@@H](C)CN1C(c1ccc(F)cc1)c1cccc(F)n1 (single isomer, unassigned) [Example 471] | 250 nM | 520 nM | 200 nM | – | 570 nM | – |
